Molecules are shown by their SMILES.

The first data set can be described thus: Metabolic stability of the compound in human SW620/AD300 cells assessed as production of metabolite -Deacetylchrysosporazine B at 2.5 uM for 2 to 48 hrs. The format is ADME, cell-based. The conditions noted are these: sw620/ad300, 2.5 µM, time 2-48 hrs.
For the compound `COc1cc([C@H]2c3ccccc3C(=O)N3C[C@H](C(=O)c4ccccc4)N(C(C)=O)C[C@H]23)cc2c1OCO2`, the Stability result was “Stable”.

A further data set in a line: Cytotoxicity against human […] cells overexpressing P-glycoprotein measured after 48 hrs by MTT assay. Format: functional, cell-based.
Details: not given
In general terms: Tetrazolium dyes change colour on reduction, which living cells bring about.
`COc1c2c(cc3c1[C@H](c1ccccc1)[C@H]1C(=O)N4C[C@H](Cc5ccccc5)N(C(C)=O)C[C@@H]4[C@@H]31)OCO2` registered an IC50 above 30 µM.
On the same count and under the same terms, in the case of `COc1cc(C[C@H]2CN3C(=O)/C(=C/c4ccccc4)[C@H](c4cc(OC)c5c(c4)OCO5)[C@H]3CN2C(C)=O)cc2c1OCO2` it was above 30 µM.
Same read-out and setting: the figure for `COc1cc([C@H]2/C(=C\c3ccccc3)C(=O)N3C[C@H](Cc4ccccc4)N(C(C)=O)C[C@H]23)cc2c1OCO2` is above 30 µM.
As to `COc1cc([C@@H]2[C@H]3CN(C(C)=O)[C@@H](Cc4ccccc4)CN3C(=O)[C@@]23O[C@H]3c2ccccc2)cc2c1OCO2`, the half-inhibitory concentration (IC50) was above 30 µM.
`COc1c2c(cc3c1[C@H](c1ccccc1)[C@@]1(O)C(=O)N4C[C@H](Cc5ccccc5)N(C(C)=O)C[C@@H]4[C@@H]31)OCO2` gave an IC50 above 30 µM.
Still for that read-out and setting: the figure for `COc1cc(C[C@H]2CN3C(=O)[C@@]4(O[C@H]4c4ccccc4)[C@H](c4cc(OC)c5c(c4)OCO5)[C@H]3CN2C(C)=O)cc2c1OCO2` is above 30 µM; for `COc1cc([C@H]2c3cccnc3C(=O)N3C[C@@H](C(=O)c4ccccc4)N(C(C)=O)C[C@H]23)cc2c1OCO2` it is above 30 µM.
The same measure, in the same setting: in the case of `COc1cc([C@H]2c3cnccc3C(=O)N3C=CN(C(C)=O)C[C@H]23)cc2c1OCO2` it was above 30 µM; in that of `COc1cc(C[C@H]2CN(C(C)=O)[C@@H](Cc3ccccc3)CN2C(=O)/C=C/c2ccccc2)cc2c1OCO2`, above 30 µM; in that of `COc1c2c(cc3c1[C@H](c1ccccc1)[C@H]1C(=O)N4C[C@H](Cc5ccccc5)NC[C@@H]4[C@@H]31)OCO2`, above 30 µM.
On to `COC1=C[C@]2(C[C@H]3CN(C(C)=O)[C@@H](Cc4ccccc4)CN3C2=O)OC1=O`, for which the IC50 was above 30 µM.
In turn, `COc1cc([C@H]2c3ccccc3C(=O)N3C[C@H](Cc4ccccc4)N(C(C)=O)C[C@H]23)cc2c1OCO2` displayed an IC50 above 30 µM.
Same read-out and setting: in the case of `COc1cc([C@H]2c3ncccc3C(=O)N3C[C@H](Cc4ccccc4)N(C(C)=O)C[C@H]23)cc2c1OCO2` it was above 30 µM.
Compound `COc1cc(C[C@H]2CN3C(=O)[C@]4(O)[C@@H](c5ccccc5)c5c(cc6c(c5OC)OCO6)[C@@H]4[C@H]3CN2C(C)=O)cc2c1OCO2` showed an IC50 above 30 µM.
Consider `COc1cc([C@H]2c3cnccc3C(=O)N3C[C@H](C(=O)c4ccccc4)NC[C@H]23)cc2c1OCO2`, for which the IC50 was above 30 µM.
The same measure, in the same setting: the figure for `COc1cc(C[C@H]2CN(C(C)=O)[C@@H](Cc3ccccc3)CN2C(=O)c2ccncc2)cc2c1OCO2` is above 30 µM; for `COc1cc([C@H]2c3ncccc3C(=O)N3C[C@H](C(=O)c4ccccc4)N(C(C)=O)C[C@H]23)cc2c1OCO2` it is above 30 µM.
Same read-out and setting: in the case of `COc1cc(/C=C2/C(=O)N3C[C@H](Cc4ccccc4)N(C(C)=O)C[C@@H]3[C@H]2c2cc(OC)c3c(c2)OCO3)ccc1O` it was above 30 µM; in that of `COc1cc([C@H]2c3cnccc3C(=O)N3C[C@@H](C(=O)c4ccccc4)N(C(C)=O)C[C@H]23)cc2c1OCO2`, above 30 µM; in that of `CC(=O)N1C[C@H](Cc2ccccc2)N(C(=O)c2ccccc2)C[C@@H]1Cc1ccccc1`, above 30 µM.
On to `COc1cc(/C=C2/C(=O)N3C[C@H](Cc4cc(OC)c5c(c4)OCO5)N(C(C)=O)C[C@@H]3[C@H]2c2cc(OC)c3c(c2)OCO3)ccc1O`, for which the IC50 is above 30 µM.
In turn, `COc1cc([C@H]2c3cccnc3C(=O)N3C[C@@H](C(=O)c4ccccc4)NC[C@H]23)cc2c1OCO2` showed an IC50 above 30 µM.
Still for that read-out and setting: in the case of `COc1cc([C@H]2c3ccccc3C(=O)N3C[C@H](C(=O)c4ccccc4)N(C(C)=O)C[C@H]23)cc2c1OCO2` it was above 30 µM; in that of `CC(=O)N1C[C@H](Cc2ccccc2)N(C(=O)/C=C/c2ccccc2)C[C@@H]1Cc1ccccc1`, above 30 µM; in that of `COc1cc([C@H]2c3ccccc3C(=O)N3C[C@@H](C(=O)c4ccccc4)N(C(C)=O)C[C@H]23)cc(OC)c1O`, above 30 µM.
On to `COc1cc([C@H]2c3cccnc3C(=O)N3C=CN(C(C)=O)C[C@H]23)cc2c1OCO2`, for which the IC50 was above 30 µM.
On the same count and under the same terms, in the case of `COc1cc(C[C@H]2CN(C(C)=O)[C@@H](Cc3ccccc3)CN2C(=O)c2cccnc2)cc2c1OCO2` it was above 30 µM; in that of `COc1cc(C[C@H]2CN3C[C@@H]4[C@@H](c5ccccc5)c5c(cc6c(c5OC)OCO6)[C@@H]4[C@H]3CN2)cc2c1OCO2`, above 30 µM.
Still for that read-out and setting: in the case of `COc1cc(/C=C/C(=O)N2C[C@H](Cc3cc(OC)c4c(c3)OCO4)N(C(C)=O)C[C@@H]2Cc2cc(OC)c3c(c2)OCO3)ccc1O` it was above 30 µM; in that of `COc1cc([C@H]2c3cccnc3C(=O)N3C[C@H](C(=O)c4ccccc4)NC[C@H]23)cc2c1OCO2`, above 30 µM.
For `COc1cc([C@H]2c3ccccc3C(=O)N3C[C@H](C(=O)c4ccccc4)N(C(C)=O)C[C@H]23)cc(OC)c1O`, the IC50 is above 30 µM.
Same read-out and setting: the figure for `C=C(c1ccccc1)[C@H]1CN2C(=O)c3ncccc3[C@H](c3cc(OC)c4c(c3)OCO4)[C@H]2CN1` is above 30 µM; for `COc1cc([C@H]2c3ncccc3C(=O)N3C=CN(C(C)=O)C[C@H]23)cc2c1OCO2` it is above 30 µM.
Compound `COc1cc(C[C@H]2CN3C(=O)/C(=C/c4ccc(O)cc4)[C@H](c4cc(OC)c5c(c4)OCO5)[C@H]3CN2C(C)=O)cc2c1OCO2` gave an IC50 above 30 µM.
For `COc1cc([C@H]2c3cnccc3C(=O)N3C[C@H](C(=O)c4ccccc4)N(C(C)=O)C[C@H]23)cc2c1OCO2`, the IC50 was above 30 µM.
As to `COc1cc([C@H]2c3cccnc3C(=O)N3C[C@H](C(=O)c4ccccc4)N(C(C)=O)C[C@H]23)cc2c1OCO2`, the IC50 was above 30 µM.
On the same count and under the same terms, in the case of `CC(=O)N1C[C@H](Cc2cc(O)c3c(c2)OCO3)N(C(=O)c2ccccc2)C[C@@H]1Cc1ccccc1` it was above 30 µM; in that of `COc1cc([C@H]2c3ccncc3C(=O)N3C[C@H](Cc4ccccc4)N(C(C)=O)C[C@H]23)cc2c1OCO2`, above 30 µM; in that of `COc1cc([C@H]2c3cccnc3C(=O)N3C[C@H](Cc4ccccc4)N(C(C)=O)C[C@H]23)cc2c1OCO2`, above 30 µM.
On the same count and under the same terms, the figure for `COc1cc(C[C@H]2CN(C(C)=O)[C@@H](Cc3ccccc3)CN2C(=O)c2ccccc2)cc(OC)c1O` is above 30 µM; for `COc1cc([C@H]2c3ccncc3C(=O)N3C=CN(C(C)=O)C[C@H]23)cc2c1OCO2` it is above 30 µM.
Same read-out and setting: in the case of `COc1cc([C@H]2c3cnccc3C(=O)N3C[C@H](Cc4ccccc4)N(C(C)=O)C[C@H]23)cc2c1OCO2` it was above 30 µM.
With `COc1cc([C@H]2c3cnccc3C(=O)N3C[C@@H](C(=O)c4ccccc4)NC[C@H]23)cc2c1OCO2`, the half-maximal inhibitory concentration (IC50) was above 30 µM.
Same read-out and setting: the figure for `COc1cc([C@H]2c3ccccc3C(=O)N3C=CN(C(C)=O)C[C@H]23)cc2c1OCO2` is above 30 µM; for `C=C(c1ccccc1)[C@H]1CN2C(=O)c3ccncc3[C@H](c3cc(OC)c4c(c3)OCO4)[C@H]2CN1` it is above 30 µM.
With `C=C(c1ccccc1)[C@H]1CN2C(=O)c3ccccc3[C@H](c3cc(OC)c4c(c3)OCO4)[C@H]2CN1`, the IC50 was above 30 µM.
`COc1cc(C[C@H]2CN3C(=O)[C@@H]4[C@@H](c5ccccc5)c5c(cc6c(c5OC)OCO6)[C@@H]4[C@H]3CN2C(C)=O)cc2c1OCO2` came in with an IC50 above 30 µM.
Still for that read-out and setting: in the case of `COc1cc([C@H]2c3ccccc3C(=O)N3C[C@H](C(=O)c4ccccc4)NC[C@H]23)cc2c1OCO2` it was above 30 µM; in that of `COc1cc(C[C@H]2CN(C(C)=O)[C@@H](Cc3ccccc3)CN2)cc(OC)c1O`, above 30 µM; in that of `COc1cc([C@H]2/C(=C\c3ccc(O)cc3)C(=O)N3C[C@H](Cc4ccccc4)N(C(C)=O)C[C@H]23)cc2c1OCO2`, above 30 µM.
The compound `COc1cc(C[C@H]2CN(C(=O)/C=C/c3ccccc3)[C@@H](Cc3cc(OC)c4c(c3)OCO4)CN2C(C)=O)cc2c1OCO2` showed an IC50 above 30 µM.
With `COc1cc(C[C@H]2CN(C(C)=O)[C@@H](Cc3ccccc3)CN2C(=O)c2ccccn2)cc2c1OCO2`, the half-inhibitory concentration (IC50) is above 30 µM.
On the same count and under the same terms, the figure for `COc1cc(C[C@H]2CN(C(=O)c3ccccc3)[C@@H](Cc3cc(OC)c4c(c3)OCO4)CN2C(C)=O)cc2c1OCO2` is above 30 µM.

The next data set can be described thus: Metabolic stability of the compound in human SW620/AD300 cells assessed as production of metabolite -Deacetylchrysosporazine F at 2.5 uM for 2 to 48 hrs. The format is ADME, cell-based. Conditions: sw620/ad300, 2.5 µM, time 2-48 hrs.
Take `COc1cc(C[C@H]2CN3C(=O)[C@@H]4[C@@H](c5ccccc5)c5c(cc6c(c5OC)OCO6)[C@@H]4[C@H]3CN2C(C)=O)cc2c1OCO2`: the Stability result is “Stable”.

Another data set is described as follows: Metabolic stability of the compound in human SW620/AD300 cells assessed as production of metabolite -Deacetylchrysosporazine C at 2.5 uM for 2 to 48 hrs. The format is ADME, cell-based. The conditions noted are these: sw620/ad300, 2.5 µM, time 2-48 hrs.
Consider `COc1cc([C@H]2c3ccccc3C(=O)N3C[C@H](Cc4ccccc4)N(C(C)=O)C[C@H]23)cc2c1OCO2`, for which the Stability entry is given as “Stable”.

The next data set in a line: Metabolic stability of the compound in human SW620/AD300 cells assessed as production of metabolite -Deacetylchrysosporazine J at 2.5 uM for 2 to 48 hrs. The format is ADME, cell-based. Conditions: sw620/ad300, 2.5 µM, time 2-48 hrs.
In the case of `COc1c2c(cc3c1[C@H](c1ccccc1)[C@H]1C(=O)N4C[C@H](Cc5ccccc5)N(C(C)=O)C[C@@H]4[C@@H]31)OCO2`, the Stability result was “Stable”.

As a reminder, the IC50 is the concentration that inhibits the measured activity by half.

(Values after ChEMBL document CHEMBL5042527, “Neochrysosporazines: Precursor-Directed Biosynthesis Defines a Marine-Derived Fungal Natural Product P-Glycoprotein Inhibitory Pharmacophore” (J Med Chem, 2022).)
